Data published in patent US8399196B2, “Nucleic acid sequencing methods, kits and reagents” (GeneForm Technologies Limited, priority 2003, dated 2013).
Like-named read-outs stand apart in the source and are kept apart here.

Molecular target: T1, Klenow exo- with template-primer (Escherichia coli, UniProt P00582, D355A/E357A)
T1 construct: purchased New England Biolabs
Assay type: binding
Conditions: for signal +polymerase + DUpNHPP: 0.3 uM Dye-DUTP conjugate, buffer background subtracted
Procedure: (1) Dideoxy terminated primer and template were mixed at a ratio of 2:1 (final template concentrations were varied as shown)
(2) DGTP DCTP and DATP was added to a final concentration of 1 mM.
(3) 0.3 uM of Intercalator-Dye-DUTP conjugate was added to the system.
(4) In some samples non-incorporable DUTP (DUPNHPP) was added as shown.
(5) 300 nM Klenow exo- was added
(6) The system was heated to at 37° C.
Where the intercalating dye is conjugated to DNPNHPP or other nonincorporable entities, then the dideoxy terminated primer is unnecessary and will allow sequential sequencing if a limited concentration of native bases are added.
Buffer background subtracted.

T1 sequence (P00582 324-928 D355A/E357A): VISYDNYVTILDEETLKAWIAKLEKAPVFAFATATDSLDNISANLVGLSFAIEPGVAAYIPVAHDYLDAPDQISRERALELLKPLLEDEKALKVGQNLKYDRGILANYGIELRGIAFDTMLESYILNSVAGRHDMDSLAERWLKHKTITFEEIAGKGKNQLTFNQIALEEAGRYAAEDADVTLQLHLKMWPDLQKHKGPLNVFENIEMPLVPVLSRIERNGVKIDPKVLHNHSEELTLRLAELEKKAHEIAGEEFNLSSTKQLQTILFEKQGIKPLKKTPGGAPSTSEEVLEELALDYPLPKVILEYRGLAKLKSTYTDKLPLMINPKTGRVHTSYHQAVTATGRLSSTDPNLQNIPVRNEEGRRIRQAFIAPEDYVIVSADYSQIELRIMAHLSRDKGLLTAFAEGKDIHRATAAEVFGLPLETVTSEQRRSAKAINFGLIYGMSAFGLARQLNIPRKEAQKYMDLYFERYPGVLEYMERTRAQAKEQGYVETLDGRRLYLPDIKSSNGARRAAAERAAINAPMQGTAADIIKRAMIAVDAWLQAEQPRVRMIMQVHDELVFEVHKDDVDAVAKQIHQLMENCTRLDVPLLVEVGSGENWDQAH

SMILES: O=c1ccn([C@H]2CC(O)[C@@H](COP(=O)(O)NP(=O)(O)OP(=O)(O)O)O2)c(=O)[nH]1 (stereo partly shown) [DUPNHPP]
- signal, T-P + Dye-DUTP + Primer1 + DUPNHPP (DUPNHPP added in competition with 0.3 uM Dye-DUTP, DUPNHPP concentration not given): 320
- signal +polymerase + DUpNHPP (Template-primer-a 0.015625 uM): 55
- signal +polymerase + DUpNHPP (Template-primer-a 0.03125 uM): 114
- signal +polymerase + DUpNHPP (Template-primer-a 0.0625 uM): 234
- signal +polymerase + DUpNHPP (Template-primer-a 0.125 uM): 438
- signal +polymerase + DUpNHPP (Template-primer-a 0.25 uM): 916
- signal +polymerase + DUpNHPP (Template-primer-a 0.5 uM): 1802
